According to US20240361265A1, “APPARATUS AND METHODS FOR EXTRACELLULAR IMPEDANCE SPECTROSCOPY OF BARRIER CELLS” (Georgia Tech Research Corporation, priority 2023, published 2024):

Legend:
iPSC-RPE (Z8) = experiment: Extracellular EIS of iPSC-RPE response to apical ATP in perfusion chamber versus Ussing chamber; format: cell-based, human
Description: EIS measurements were performed with an Autolab PGSTAT204 with a FRA32M […] (Utrecht, Netherlands). The device was controlled with the provided NOVA 2.1.5 software to perform frequency sweeps from 0.1 Hz to 10 kHz. The NOVA software was used to send up to 5 simultaneous frequencies spaced to approximately 5 unique measurements per decade. The PGSTAT working electrode was connected to the working electrode and counter electrode; the sense and reference electrodes were connected to the basal and apical baths through the Ringer-based agar bridges (connected to Ag|AgClreference electrodes in a saturated KCl bath), respectively.
Chamber design and extracellular epithelial properties: A custom device was assembled to rapidly and noninvasively evaluate the evoked responses and recovery of RPE to extracellular ATP (FIG. 4.3).
The “perfusion” chamber in FIG. 8A was created using the same Acrylic material as the Ussing chamber but was designed to interface with an intact, 12-well Transwell insert (Corning costar 3460). Ag|AgCl wires were used as the working and counter electrodes. These electrodes were shaped into a symmetric ring of maximum diameter that fits inside the chamber and placed as far from the epithelia as possible to maximize uniformity of the current flux across the tissue. The sense and reference electrodes (used to measure TEP) were single-junction KCl reference electrodes. The KCl reference electrode was constructed with an Ag|AgCl wire that was inserted in a glass body (1.5 mm outer diameter) and backfilled with 3 M KCl. The terminus of these electrodes was made of a Vycor frit that enabled electrical contact between the 3 M KCl solution and the perfusate. Ag|AgCl electrodes were selected due to their rapid and reversible redox reactions, and the bridges were designed to minimize the effect of drifting Cl− ion concentrations on the electrode junction potential. The sense and reference electrodes were inserted through the cylinders extruding through the top of the device such that they were positioned as close as possible to the tissue. The design of the Acrylic cylinders included a kinematic constraint for the electrodes to ensure that the distance between the tissue and voltage-sensing probes was consistent across all experiments.
For example, the magnitudes of extracellular tissue properties in normal Ringer's solution should be compared.
Furthermore, to ensure that the perfusion device can maintain the health and function of epithelia during long experiments, a simple experiment was devised to last at least 45 min; sufficient for rigorous RPE experiments performed in literature ([39′], [7′]). During this experiment the tissues were briefly exposed (approximately 10 min) to 100 μM ATP at the apical membrane. […]

iPSC-derived RPE = experiment: Combined intracellular pipette and EIS (3P-EIS) recording of iPSC-RPE response to apical ATP in modified Ussing chamber; format: cell-based, human; details: for membrane-specific capacitance changes: apical ATP stimulation
Description: Human iPSC-RPE cells. The study performed the protocol for induced pluripotent stem cell (iPSC) differentiation described in [29]. Briefly, for each individual iPSC line, somatic cells (blood or fibroblasts) were isolated from a single donor and were reprogrammed using the Sendai virus or episomal reprograming methods. Reprogramed iPSC colonies were differentiated into RPE using the protocol described by Sharma et al.. iPSC-derived RPE cells were seeded onto Corning 3406 Transwells, with a seeding density of 300,000 cells/cm^2 and 250,000 cells/cm^2 and were measured at approximately 300 days old. Fully-mature RPE cells were characterized with a transmission electron microscope (TEM) for morphology, gene expression, and immunostaining for RPE-specific markers. For iPSC genotype, TaqMan genotyping assays (ThermoFisher) were used. The following probes were tested: rs1061170 (Assay ID: AHI1TPW; 4331349); rs2230199 (Assay ID: C_26330755_10; 4351379). SNP rs10490924 (Assay ID: C_29934973_20; 4351379). Two human donors were used to derive iPSC-RPE for this experiment. Samples 1 and 2 were derived from donor A, and sample 3 was derived from donor B.
Tissue mounting and maintenance. The study performed the method for mounting the tissue into the modified Ussing chamber for electrophysiology described in [32]. Briefly, a 7 mm diameter, circular section of the iPSC-RPE Transwell was punched out, mounted, and sealed into the chamber, apical side up. Electrical current leak, due to poor sealing between the Ussing chamber and the Transwell punch-out, was minimized by placing a nylon mesh insert beneath the sample so that the iPSC-RPE made contact around the entire circumference of the chamber. The total exposed tissue cross-section was approximately 0.11 cm^2. Experimental solutions were perfused across both sides of the tissue for the entire duration of the experiment.
Electrophysiological solution. The standard, control solution was the same modified Ringer's solution as has been described previously. In brief, the solution contains (in mM): 5 KCl, 116.5 NaCl, 23 NaHCO3, 0.5 MgCl2, 1.8 CaCl2, 2 taurine, 5 glucose, and 10 sucrose. All salts (except for CaCl2) were mixed into de-ionized water at room temperature (20 C). The solution was bubbled for approximately 5 minutes with 95% CO2 before the addition of CaCl2. […] During an experiment, the solution was continuously bubbled with a custom gas mixture (5% CO2, 10% 02, and 85% N2) to maintain the Ringer's solution to a pH near 7.4±0.1.
Measurement Setup and Electrode Configuration. To measure the apical and basolateral bath voltages, Ringer-filled 3.5% agar bridges were connected to saturated KCl baths with submerged, double-junction AgCl reference electrodes (Fisher Scientific, Accumet, cat. No. 13-620-855). AgCl-coated Ag wires (0.01″ diameter) were submerged directly into the apical and basolateral baths to apply current across the tissues during galvanostatic measurements. The Ussing chamber was rotated approximately 30 degrees from horizontal during each experiment to simultaneously enable equal fluidic pressures across the epithelia while simultaneously allowing for apical bath access for intracellular pipettes.
The study performed the protocol for inserting a pipette into the cell's cytoplasm (FIG. 5C, node 3) for intracellular recordings described in [32]. Briefly, a LabVIEW-based controller was used to insert a pipette—backfilled with 150 mM NaCl—into the cytoplasm of a single cell using an N-565.260 piezoelectric motor connected to an E-861.1A1 single-axis controller box (Physik Instrumente). The pipette voltage was amplified using a Multiclamp 700B (Molecular Devices) amplifier, and the trans-epithelial potential (TEP) signal was amplified using a VCC 600 (Physiologic Instruments). The primary output of the Multiclamp 700B had the settings: 10 mV/mV in “Membrane Potential” mode with “gain” set to 1, and the Bessel filter was set to 30 kHz. […]

Nc1ncnc2c1ncn2[C@@H]1O[C@H](COP(=O)(O)OP(=O)(O)OP(=O)(O)O)[C@@H](O)[C@H]1O [ATP, adenosine triphosphate]
tissue capacitance (Ct) average decrease (iPSC-RPE (Z8); 100 μM apical ATP, about 10 min, Ussing chamber): 3% | tissue capacitance (Ct) average increase (iPSC-RPE (Z8); 100 μM apical ATP, about 10 min, perfusion chamber): 11% | time to return to within 95% of baseline after ATP (iPSC-RPE (Z8); both perfusion and Ussing chambers): ≤ 40 min | extracellular time constant ratio response (iPSC-RPE (Z8); during ATP exposure, samples 1, 2 and 3, Ussing chamber): increased in magnitude | apical membrane resistance decrease (iPSC-derived RPE; 100 μM apical ATP exposure, sample 1): 62% | apical membrane resistance increase (iPSC-derived RPE; 100 μM apical ATP exposure, sample 2): 89% | apical membrane resistance increase (iPSC-derived RPE; 100 μM apical ATP exposure, sample 3): 139% | membrane-specific capacitance changes (iPSC-derived RPE; Sample 1): did not display ATP650-induced changes | membrane-specific capacitance changes (iPSC-derived RPE; Samples 2 and 3): concurrent reductions in apical capacitance and elevations in basolateral capacitance | depolarization of the apical membrane (Va) (iPSC-derived RPE; by the end of the ATP exposure, all three samples): approximately 20 mV | change in apical capacitance Ca (iPSC-derived RPE; during ATP administration): 12% | change in basolateral capacitance Cb (iPSC-derived RPE; during ATP administration): −6% | TER response (iPSC-derived RPE; during ATP exposure, 3P-Classical or exemplary method): decrease in TER | basolateral resistance (Rb) response (iPSC-derived RPE; during ATP exposure, Sample 3): expected reduction | shunt resistance (Rs) response (iPSC-derived RPE; during ATP exposure, all samples): rapid and substantial decrease | depolarization of the apical membrane (Va) (iPSC-derived RPE; first phase of the ATP-induced response, Sample 3): 10 mV | depolarization of the apical membrane (Va) (iPSC-derived RPE; first phase of the ATP-induced response, Samples 1 and 2): 20 mV | TEP response (iPSC-derived RPE; remainder of the ATP exposure, all three samples): increase in TEP
